Data on one compound can be found in patent US8871933B2, “Purified pyrroloquinolinyl-pyrrolidine-2,5-dione compositions and methods for preparing and using same” (ArQule, Inc., priority 2009, dated 2014).

In one series the target is PAK3 (Homo sapiens, UniProt O75914). Put plainly: Kinase panel inhibition, PAK3. It is filed as biochemical. Here is the method: (§1) (−)-trans-3-(5,6-dihydro-4H-pyrrolo[3,2,1-ij]quinolin-1-yl)-4-(1H-indol-3-yl)pyrrolidine-2,5-dione was assessed for its activity to inhibit a large panel (n=230) of human kinases.
Sequence of PAK3 (O75914 whole entry): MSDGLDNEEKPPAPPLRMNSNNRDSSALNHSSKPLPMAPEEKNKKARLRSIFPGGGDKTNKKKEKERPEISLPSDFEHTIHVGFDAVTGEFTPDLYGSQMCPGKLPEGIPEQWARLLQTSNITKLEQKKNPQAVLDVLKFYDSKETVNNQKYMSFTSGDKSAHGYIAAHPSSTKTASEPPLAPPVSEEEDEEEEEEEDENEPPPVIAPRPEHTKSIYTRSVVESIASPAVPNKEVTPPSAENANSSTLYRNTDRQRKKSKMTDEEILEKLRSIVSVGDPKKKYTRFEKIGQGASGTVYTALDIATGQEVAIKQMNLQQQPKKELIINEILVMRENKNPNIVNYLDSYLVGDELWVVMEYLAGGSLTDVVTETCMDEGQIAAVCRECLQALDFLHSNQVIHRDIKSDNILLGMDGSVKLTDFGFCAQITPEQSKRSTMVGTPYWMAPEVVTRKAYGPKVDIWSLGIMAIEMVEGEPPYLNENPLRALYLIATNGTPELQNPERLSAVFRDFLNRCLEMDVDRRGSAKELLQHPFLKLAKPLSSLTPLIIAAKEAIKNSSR
The subject of series [1] is HT-29 human colon cancer cells. Put plainly: Human colon cancer xenograft. It is filed as in vivo, female athymic nude mice. The following applies: for optimal tumor growth inhibition: 20 treatments. Here is the method:
In a human colon cancer xenograft model HT-29 human colon cancer cells were inoculated subcutaneously into female athymic nude mice (5×10^6 cells/mouse) and allowed to form palpable tumors. Once the tumors reached approximately 60 mm^3, the animals were treated orally with either (−)-trans-3-(5,6-dihydro-4H-pyrrolo[3,2,1-ij]quinolin-1-yl)-4-(1H-indol-3-yl)pyrrolidine-2,5-dione at 200 mg/kg or 300 mg/kg, or vehicle control daily (5 consecutive days, followed by a 2 day dosing holiday). (−)-trans-3-(5,6-dihydro-4H-pyrrolo[3,2,1-ij]quinolin-1-yl)-4-(1H-indol-3-yl)pyrrolidine-2,5-dione was formulated in PEG 400:20% Vitamin E TPGS (60:40). The animals received a total of 20 treatments of either (−)-trans-3-(5,6-dihydro-4H-pyrrolo[3,2,1-ij]quinolin-1-yl)-4-(1H-indol-3-yl)pyrrolidine-2,5-dione or vehicle control. Tumors were measured throughout treatment and the post-treatment observation period. Each point represents the mean±SEM often tumors. (See, FIG. 9, Panel A)
(In general: In xenograft studies the graft and the host belong to different species.)

The target of a further series is Pim-1 (Homo sapiens, UniProt P11309). As to the kind of experiment: Kinase panel inhibition, Pim-1. It is filed as biochemical. As to the method: as §1
Sequence of Pim-1 (P11309 whole entry): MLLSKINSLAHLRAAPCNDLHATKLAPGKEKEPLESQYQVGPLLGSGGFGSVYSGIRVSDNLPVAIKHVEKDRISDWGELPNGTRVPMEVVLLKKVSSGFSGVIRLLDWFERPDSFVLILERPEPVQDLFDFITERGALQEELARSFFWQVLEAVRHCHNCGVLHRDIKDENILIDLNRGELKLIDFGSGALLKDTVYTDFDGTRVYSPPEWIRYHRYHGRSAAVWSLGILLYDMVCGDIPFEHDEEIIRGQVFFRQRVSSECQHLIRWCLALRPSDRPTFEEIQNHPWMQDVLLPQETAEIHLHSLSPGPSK
Series [2] has as its system human gastric cancer MKN45. As to the kind of experiment: Human gastric cancer xenograft. It is filed as in vivo. As to conditions: monotherapy. Here is the method: The efficacy of (−)-trans-3-(5,6-dihydro-4H-pyrrolo[3,2,1-ij]quinolin-1-yl)-4-(1H-indol-3-yl)pyrrolidine-2,5-dione was also tested in xenograft models with several other cancer cell lines: human pancreatic cancer MIA PaCa2 (FIG. 9, Panel B), human prostate cancer PC3 (FIG. 9, Panel C) and human gastric cancer MKN45 (FIG. 9, Panel D). The cells were treated with (−)-trans-3-(5,6-dihydro-4H-pyrrolo[3,2,1-ij]quinolin-1-yl)-4-(1H-indol-3-yl)pyrrolidine-2,5-dione as a monotherapy at indicated concentrations.

A further series addresses c-Met (Homo sapiens, UniProt P08581). As to the kind of experiment: Kinase inhibition, c-Met. It is filed as biochemical. The following applies: read-out: inhibitory constant (Ki). Here is the method:
as §1

Series [3] concerns Human cancer cell lines expressing c-Met and/or phospho-c-Met. As to the kind of experiment: Cytotoxicity MTS assay. As to conditions: 0.03 to 30 μM. It is filed as cell-based. Here is the method:
Various cancer cell lines were treated with (−)-trans-3-(5,6-dihydro-4H-pyrrolo[3,2,1-ij]quinolin-1-yl)-4-(1H-indol-3-yl)pyrrolidine-2,5-dione at indicated concentrations ranging from 0.03 to 30 μM. The sensitivity of these cells to (−)-trans-3-(5,6-dihydro-4H-pyrrolo[3,2,1-ij]quinolin-1-yl)-4-(1H-indol-3-yl)pyrrolidine-2,5-dione was measured by a standard cytoxicity MTS assay (FIG. 10). Human cancer cell lines expressing c-Met and/or phospho-c-Met were sensitive to (−)-trans-3-(5,6-dihydro-4H-pyrrolo[3,2,1-ij]quinolin-1-yl)-4-(1H-indol-3-yl)pyrrolidine-2,5-dione.
(In general: Tetrazolium assays rely on reduction of a dye to a coloured formazan, in cell work by metabolically active cells.)

A further series relates to MDA-MB-231 cells. As to the kind of experiment: Colony formation / surviving fraction assay. It is filed as cell-based. As to conditions: Homo sapiens, two days incubation, colonies counted two weeks later, read-out: IC50 (surviving fraction equaled 50). As to the method: MDA-MB-231 cells (ATCC #HTB-26), grown in DMEM plus 15% heat inactivated fetal bovine serum plus 10 mM HEPES pH 7.5, were plated in 60 mm^2 plates (2×10^5 cells per plate). After two days candidate compounds in DMSO at various concentrations were diluted in media and added to individual plates such that the final DMSO concentration in the cell culture media was 0.1%. After two days incubation the culture was trypsinized, cells were washed with media, counted using a hemocytometer and 500 cells, including cell bodies, were plated in 100 mm^2 plates in media. Two weeks later the media was removed and the cell colonies were fixed with methanol for 10 minutes, stained with 1% crystal violet for 10 minutes, washed with water and air dried. Cell colonies were visually counted when there were greater then 50 cells present per colony. Plating efficiency was defined as the average number of colonies formed divided by 500. The surviving fraction was defined as the plating efficiency of a candidate compound divided by the plating efficiency of DMSO multiplied by 100. For candidate compound titrations, the IC50 value was determined by fitting the equation y=Ae^Bx to the data points and extrapolating the concentration where surviving fraction equaled 50. […]

A further series has as its target Flt4 (Homo sapiens, UniProt P35916). Put plainly: Kinase panel inhibition, Flt4. It is filed as biochemical. As to the method:
as §1

The subject of series [4] is MDA-MB-231 breast cancer cells. As to the kind of experiment: Cancer cell invasion assay (inserts). It is filed as cell-based. As to conditions: Homo sapiens, 24 hours pretreatment, 24 hours invasion, estimated, read-out: IC50, inhibition of invasive phenotype. As to the method: MDA-MB-231 cells were pretreated with indicated concentrations of (−)-trans-3-(5,6-dihydro-4H-pyrrolo[3,2,1-ij]quinolin-1-yl)-4-(1H-indol-3-yl)pyrrolidine-2,5-dione for 24 hours. 300 μl of each cell suspension (at a concentration 0.5×10^6 cells/mL in serum free medium) was placed in individual inserts and incubated for 24 hours at 37° C. The bottom wells housing the inserts contained […] of 10% FBS containing medium. […] Each insert was then transferred to a clean well containing cell stain solution and incubated for 10 minutes at room temperature. The bottom of the insert was destained by incubating in extraction solution and OD was measured at 560 nm. (−)-trans-3-(5,6-dihydro-4H-pyrrolo[3,2,1-ij]quinolin-1-yl)-4-(1H-indol-3-yl)pyrrolidine-2,5-dione inhibited the migration across interstices in confluent cultures of MDA-MB-231 cancer cells. The data represent the mean of two independent experiments. (See FIG. 7)

For a further series, the system named is tumors. Put plainly: Clinical studies (tolerability and tumor responses). It is filed as in vivo, human. An excerpt: (−)-trans-3-(5,6-dihydro-4H-pyrrolo[3,2,1-ij]quinolin-1-yl)-4-(1H-indol-3-yl)pyrrolidine-2,5,-dione is a selective inhibitor of c-Met, a receptor tyrosine kinase. When abnormally activated, c-Met plays multiple roles in aspects of human cancer, including cancer cell growth, survival, angiogenesis, invasion and metastasis.

Sequence of c-Met (P08581 25-1390): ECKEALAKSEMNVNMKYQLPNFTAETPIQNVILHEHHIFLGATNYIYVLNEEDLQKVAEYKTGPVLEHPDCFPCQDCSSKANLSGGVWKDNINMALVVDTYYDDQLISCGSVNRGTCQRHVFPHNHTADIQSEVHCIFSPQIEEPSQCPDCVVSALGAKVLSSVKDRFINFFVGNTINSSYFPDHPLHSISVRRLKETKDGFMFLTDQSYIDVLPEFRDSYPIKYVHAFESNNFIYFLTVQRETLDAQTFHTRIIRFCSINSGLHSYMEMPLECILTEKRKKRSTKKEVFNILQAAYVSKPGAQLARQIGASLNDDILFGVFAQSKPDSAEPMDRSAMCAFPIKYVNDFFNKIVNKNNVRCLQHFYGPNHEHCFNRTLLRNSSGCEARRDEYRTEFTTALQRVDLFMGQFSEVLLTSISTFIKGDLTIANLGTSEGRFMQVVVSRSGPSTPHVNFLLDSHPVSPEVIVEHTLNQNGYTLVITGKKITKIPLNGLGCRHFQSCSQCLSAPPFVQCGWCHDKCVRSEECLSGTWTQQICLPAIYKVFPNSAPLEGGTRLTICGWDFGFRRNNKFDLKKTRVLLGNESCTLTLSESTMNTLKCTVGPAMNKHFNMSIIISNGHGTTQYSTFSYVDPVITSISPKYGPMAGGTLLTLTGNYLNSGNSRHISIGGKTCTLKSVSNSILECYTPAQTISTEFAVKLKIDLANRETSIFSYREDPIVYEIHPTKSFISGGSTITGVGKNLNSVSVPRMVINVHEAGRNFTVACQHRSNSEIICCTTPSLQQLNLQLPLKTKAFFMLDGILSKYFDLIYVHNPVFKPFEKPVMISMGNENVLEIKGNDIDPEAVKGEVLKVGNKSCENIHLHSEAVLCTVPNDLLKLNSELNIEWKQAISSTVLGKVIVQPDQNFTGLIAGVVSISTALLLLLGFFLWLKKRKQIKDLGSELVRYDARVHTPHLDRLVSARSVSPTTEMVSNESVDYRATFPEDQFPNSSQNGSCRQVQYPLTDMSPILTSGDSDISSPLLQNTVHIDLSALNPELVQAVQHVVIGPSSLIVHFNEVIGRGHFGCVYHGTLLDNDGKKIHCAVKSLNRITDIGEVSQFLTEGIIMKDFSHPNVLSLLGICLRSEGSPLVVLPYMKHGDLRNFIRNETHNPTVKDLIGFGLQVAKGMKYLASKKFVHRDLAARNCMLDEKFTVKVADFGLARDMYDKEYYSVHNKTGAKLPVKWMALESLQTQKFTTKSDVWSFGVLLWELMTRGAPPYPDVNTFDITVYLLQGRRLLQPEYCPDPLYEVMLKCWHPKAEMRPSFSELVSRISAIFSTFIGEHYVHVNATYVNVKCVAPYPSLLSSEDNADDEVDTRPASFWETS
Sequence of Flt4 (P35916 25-1363): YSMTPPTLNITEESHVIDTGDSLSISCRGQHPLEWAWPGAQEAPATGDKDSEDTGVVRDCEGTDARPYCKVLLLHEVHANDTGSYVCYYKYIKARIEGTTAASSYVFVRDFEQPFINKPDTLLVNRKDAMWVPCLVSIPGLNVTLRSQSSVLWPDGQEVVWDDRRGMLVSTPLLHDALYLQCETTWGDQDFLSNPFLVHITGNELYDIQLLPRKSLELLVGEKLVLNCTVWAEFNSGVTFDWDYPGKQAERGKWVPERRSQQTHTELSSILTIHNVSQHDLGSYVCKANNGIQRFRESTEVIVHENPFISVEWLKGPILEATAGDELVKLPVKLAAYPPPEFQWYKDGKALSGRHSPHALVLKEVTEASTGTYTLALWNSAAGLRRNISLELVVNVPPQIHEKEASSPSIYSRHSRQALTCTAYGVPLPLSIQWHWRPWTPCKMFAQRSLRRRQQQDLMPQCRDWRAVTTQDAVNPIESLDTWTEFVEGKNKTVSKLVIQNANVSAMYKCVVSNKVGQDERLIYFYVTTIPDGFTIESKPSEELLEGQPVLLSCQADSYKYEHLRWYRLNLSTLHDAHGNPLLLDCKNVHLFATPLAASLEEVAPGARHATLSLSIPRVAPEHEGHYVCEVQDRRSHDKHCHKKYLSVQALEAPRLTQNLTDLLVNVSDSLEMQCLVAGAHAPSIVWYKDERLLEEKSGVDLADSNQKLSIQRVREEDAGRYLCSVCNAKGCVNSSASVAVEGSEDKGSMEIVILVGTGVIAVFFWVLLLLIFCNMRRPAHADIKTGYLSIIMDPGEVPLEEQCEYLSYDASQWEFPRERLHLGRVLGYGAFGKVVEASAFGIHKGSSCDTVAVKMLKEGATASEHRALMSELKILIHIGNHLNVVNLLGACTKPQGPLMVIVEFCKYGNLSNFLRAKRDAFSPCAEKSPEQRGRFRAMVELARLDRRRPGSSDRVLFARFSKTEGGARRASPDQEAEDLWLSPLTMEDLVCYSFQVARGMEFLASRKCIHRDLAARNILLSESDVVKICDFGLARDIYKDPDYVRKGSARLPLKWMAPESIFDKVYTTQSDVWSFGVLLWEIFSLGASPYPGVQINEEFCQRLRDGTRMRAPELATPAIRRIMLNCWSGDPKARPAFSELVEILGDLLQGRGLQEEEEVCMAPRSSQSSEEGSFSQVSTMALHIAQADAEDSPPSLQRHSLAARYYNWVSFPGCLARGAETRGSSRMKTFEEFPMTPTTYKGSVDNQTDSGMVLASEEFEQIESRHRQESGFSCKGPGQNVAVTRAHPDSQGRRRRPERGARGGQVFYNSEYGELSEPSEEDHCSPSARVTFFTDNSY

What is called IC50 is the point on the concentration scale where inhibition reaches its midpoint. As a reminder, the inhibition is the percentage by which the read-out fell short of the control. The low end stands for little suppression, the high end for strong suppression. The term Ki denotes the equilibrium dissociation constant of an inhibitor or competing ligand from its target. With `O=C1NC(=O)[C@@H](c2cn3c4c(cccc24)CCC3)[C@@H]1c1c[nH]c2ccccc12` (single isomer, unassigned) [(−)-trans-3-(5,6-dihydro-4H-pyrrolo[3,2,1-ij]quinolin-1-yl)-4-(1H-indol-3-yl)pyrrolidine-2,5-dione], the IC50 is around 6.6 µM at PAK3; 10 µM at Pim-1; 0.62 µM in the series with MDA-MB-231 cells; around 16 µM at Flt4; around 0.5 µM in [4]. Moreover, the “optimal tumor growth inhibition” value in series [1] (200 mg/kg orally, p=0.006) is listed as 39%; in [1] (300 mg/kg orally, p=0.00001) it was 55%. Besides, in [1] (oral administration at 200 mg/kg or 300 mg/kg), the “change in body weight” value is reported as “no significant change in body weight”. At Pim-1 (10 μM), this compound came in with an inhibition at 10 µM of 33%. The tumor growth result in series [2] was “significantly inhibited tumor growth”. At c-Met, the Ki is around 0.36 µM. For the same compound, the “sensitivity (cytotoxicity MTS assay)” value in series [3] is “sensitive”. The “tumor responses in clinical studies” value in the series with tumors (broad ranges of tumors and doses) is “tumor responses and prolonged stable disease”. For the same compound, in the series on tumors (human, in vivo), the “tolerability in clinical studies” value is “well tolerated”.
